# Molecular target: T1, KRAS G12C 1-169, his-tagged protein, GDP-loaded (Homo sapiens, UniProt P01116, G12C)
# T1 construct: KRAS G12C 1-169, his-tagged protein, GDP-loaded; His tag
# Assay: Biochemical assay: covalent modification of KRAS G12C, analysed by mass spectrometry (RapidFire/TOF or Q-Exactive); further: time not given here
# Format: binding
# Details: Modification activity, modification percentage from MS peak intensities
# Procedure, shortened: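 GDP-loaded His-tagged KRAS G12C 1-169 (2 μM or 0.5 μM in 20 mM Hepes, 150 mM NaCl, 1 mM MgCl2) reacted with compound at 32 μM or 8 μM final (2% DMSO) for a set time, then quenched with formic acid. Percent covalent modification from deconvoluted intact-protein MS peak intensities (RapidFire/TOF or LC-Q Exactive).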
row,Compound,Binding %
1,"C=CC(=O)N1CC2(CCN(c3ncnc(-c4c(C)ccc5[nH]nc(N)c45)c3C#N)C2)C1 [Compound I-242, 4-(2-acryloyl-2,6-diazaspiro[3.4]octan-6-yl)-6-(3-amino-5-methyl-1H-indazol-4-yl)pyrimidine-5-carbonitrile]",++ (++ indicates binding activity from 50 to 85%)
2,"C=CC(=O)N1CC2(CCN(c3ncnc(-c4c(C)ccc5[nH]ncc45)c3OC)C2)C1 [Compound I-243, 1-(6-(5-methoxy-6-(5-methyl-1H-indazol-4-yl)pyrimidin-4-yl)-2,6-diazaspiro[3.4]octan-2-yl)prop-2-en-1-one]",+ (+ indicates binding activity greater than 0% and up to 50%)
3,"C=CC(=O)N1CC2(CCN(c3ncnc(Oc4ccccc4C(N)=O)c3C#N)C2)C1 [Compound I-244, 2-((6-(2-acryloyl-2,6-diazaspiro[3.4]octan-6-yl)-5-cyanopyrimidin-4-yl)oxy)benzamide]",+ (+ indicates binding activity greater than 0% and up to 50%)
4,"C=CC(=O)N1CC2(CCN(c3ncnc(-c4c(C)ccc5[nH]ncc45)c3O)C2)C1 [Compound I-245, 1-(6-(5-hydroxy-6-(5-methyl-1H-indazol-4-yl)pyrimidin-4-yl)-2,6-diazaspiro[3.4]octan-2-yl)prop-2-en-1-one]",+ (+ indicates binding activity greater than 0% and up to 50%)
5,"C=CC(=O)N1CC2(CCN(c3ncnc(N4CCCC4CO)c3C#N)C2)C1 (stereo not drawn) [Compound I-246, 4-(2-acryloyl-2,6-diazaspiro[3.4]octan-6-yl)-6-(2-(hydroxymethyl)pyrro-lidin-1-yl)pyrimidine-5-carbonitrile]",+ (+ indicates binding activity greater than 0% and up to 50%)
6,"C=CC(=O)N1CC2(CCN(c3ncnc(N4CCC[C@@H]4C(N)=O)c3C#N)C2)C1 [Compound I-247, (R)-1-(6-(2-acryloyl-2,6-diazaspiro[3.4]octan-6-yl)-5-cyanopyrimidin-4-yl)pyrrolidine-2-carboxamide]",+ (+ indicates binding activity greater than 0% and up to 50%)
7,"C=CC(=O)N1CC2(CCN(c3ncnc(N4CCC[C@H]4C(N)=O)c3C#N)C2)C1 [Compound I-248, (S)-1-(6-(2-acryloyl-2,6-diazaspiro[3.4]octan-6-yl)-5-cyanopyrimidin-4-yl)pyrrolidine-2-carboxamide]",+ (+ indicates binding activity greater than 0% and up to 50%)
8,"C=CC(=O)N1CC2(CCN(c3ncnc(-c4c(C)ccc5[nH]ncc45)c3C3CC3)C2)C1 [Compound I-249, 1-(6-(5-cyclopropyl-6-(5-methyl-1H-indazol-4-yl)pyrimidin-4-yl)-2,6-diazaspiro[3.4]octan-2-yl)prop-2-en-1-one]",+ (+ indicates binding activity greater than 0% and up to 50%)
9,"C=CC(=O)N1CC2(CCN(c3ncnc(-c4c(C)ccc5[nH]cnc45)c3C#N)C2)C1 [Compound I-250, 4-(2-acryloyl-2,6-diazaspiro[3.4]octan-6-yl)-6-(5-methyl-1H-benzo[d]imidazol-4-yl)pyrimidine-5-carbonitrile]",+ (+ indicates binding activity greater than 0% and up to 50%)
10,"C=CC(=O)N1CC2(CCN(c3ncnc(-c4c(C)ccc5[nH]ncc45)c3CO)C2)C1 [Compound I-251, 1-(6-(5-(hydroxymethyl)-6-(5-methyl-1H-indazol-4-yl)pyrimidin-4-yl)-2,6-diazaspiro[3.4]octan-2-yl)prop-2-en-1-one]",+ (+ indicates binding activity greater than 0% and up to 50%)
11,"C=CC(=O)N1CC2(CCN(c3ccnc(-c4c(C)ccc5[nH]ncc45)c3C#N)C2)C1 [Compound I-252, 4-(2-acryloyl-2,6-diazaspiro[3.4]octan-6-yl)-2-(5-methyl-1H-indazol-4-yl)nicotinonitrile]",+ (+ indicates binding activity greater than 0% and up to 50%)
12,"C=CC(=O)N1CC2(CCN(c3ncnc(-c4c(C)ccc5[nH]ncc45)c3C(N)=O)C2)C1 [Compound I-253, 4-(2-acryloyl-2,6-diazaspiro[3.4]octan-6-yl)-6-(5-methyl-1H-indazol-4-yl)pyrimidine-5-carboxamide]",+ (+ indicates binding activity greater than 0% and up to 50%)
13,"C=CC(=O)N1CC2(CCN(c3ncnc(-c4c(C)ccc5[nH]ncc45)c3C(=O)N(C)C)C2)C1 [Compound I-254, 4-(2-acryloyl-2,6-diazaspiro[3.4]octan-6-yl)-N,N-dimethyl-6-(5-methyl-1H-indazol-4-yl)pyrimidine-5-carboxamide]",+ (+ indicates binding activity greater than 0% and up to 50%)
14,"C=CC(=O)N1CC2(CCN(c3ncnc(Oc4cccc(C(N)=O)c4)c3C#N)C2)C1 [Compound I-255, 3-((6-(2-acryloyl-2,6-diazaspiro[3.4]octan-6-yl)-5-cyanopyrimidin-4-yl)oxy)benzamide]",+ (+ indicates binding activity greater than 0% and up to 50%)
15,"C=CC(=O)N1CC2(CCN(c3cncc(-c4c(C)ccc5[nH]ncc45)c3C#N)C2)C1 [Compound I-256, 3-(2-acryloyl-2,6-diazaspiro[3.4]octan-6-yl)-5-(5-methyl-1H-indazol-4-yl)isonicotinonitrile]",+++ (+++ indicates binding activity greater than 85%)
16,"C=CC(=O)N1CC2(CCN(c3ncnc(-c4c(C)ccc5[nH]ncc45)c3C)C2)C1 [Compound I-257, 1-(6-(5-methyl-6-(5-methyl-1H-indazol-4-yl)pyrimidin-4-yl)-2,6-diazaspiro[3.4]octan-2-yl)prop-2-en-1-one]",+ (+ indicates binding activity greater than 0% and up to 50%)
17,"C=CC(=O)N1CC2(CCN(c3ncnc(-c4c(C)ccc5[nH]ncc45)c3CN(C)C)C2)C1 [Compound I-258, 1-(6-(5-((dimethylamino)meth-yl)-6-(5-methyl-1H-indazol-4-yl)pyrimidin-4-yl)-2,6-diazaspiro[3.4]octan-2-yl)prop-2-en-1-one]",+ (+ indicates binding activity greater than 0% and up to 50%)
18,"C=CC(=O)N1CC2(CCN(c3ncnc(-c4c(C)ccc5[nH]ncc45)c3CC(F)(F)F)C2)C1 [Compound I-259, 1-(6-(6-(5-methyl-1H-indazol-4-yl)-5-(2,2,2-trifluoroethyl)pyrimi-din-4-yl)-2,6-diazaspiro[3.4]octan-2-yl)prop-2-en-1-one]",+ (+ indicates binding activity greater than 0% and up to 50%)
19,"C=CC(=O)N1CC2(CCN(c3ncnc(-c4c(C)ccc5[nH]ncc45)c3C(F)(F)F)C2)C1 [Compound I-260, 1-(6-(6-(5-methyl-1H-indazol-4-yl)-5-(trifluoromethyl)pyri-midin-4-yl)-2,6-diazaspiro[3.4]octan-2-yl)prop-2-en-1-one]",+ (+ indicates binding activity greater than 0% and up to 50%)
20,"C=CC(=O)N1CC2(CCN(c3ncnc(-c4c(C)ccc5[nH]ncc45)c3N3CCCC3)C2)C1 [Compound I-261, 1-(6-(6-(5-methyl-1H-indazol-4-yl)-5-(pyrrolidin-1-yl)pyrimidin-4-yl)-2,6-diazaspiro[3.4]octan-2-yl)prop-2-en-1-one]",+ (+ indicates binding activity greater than 0% and up to 50%)
21,"C=CC(=O)N1CC2(CCN(c3ncnc(-c4c(C)ccc5[nH]ncc45)c3CC)C2)C1 [Compound I-262, 1-(6-(5-ethyl-6-(5-methyl-1H-indazol-4-yl)pyrimidin-4-yl)-2,6-diazaspiro[3.4]octan-2-yl)prop-2-en-1-one]",+ (+ indicates binding activity greater than 0% and up to 50%)

# From patent US12134620B2 (ARAXES PHARMA LLC, priority 2018, dated 2024)
